Measurements: patent US9310359B2, “Analyte quantification using flow induced dispersion analysis” (FIDA-TECH APS, priority 2010, dated 2016)
Read-outs that look alike come from different tables or passages of the source.

Columns and labels:
[1] = Diffusion coefficients from FIDA peak variance (eq 2, capillary radius 25 μm); type: physicochemical; conditions: 67 mM phosphate buffer pH 7.4, 25° C., calculated using eq 2, capillary radius 25 μm; for Diffusion coefficient of the complex DAL: complex with βCD
From the text: According to Taylor-Aris theory the temporal peak variance is related to ligand (affinity probe) diffusivity (13,14). Under optimal conditions for a pressure driven flow in a cylindrical capillary the peak variance is inversely proportional to the diffusion coefficient, D, according to (15): [formula] where Rc is the radius of the capillary tube, and tR is the peak appearance time. In the presence of the analyte βCD, the observed variance can be attributed to α-naphthol and the complex between α-naphthol and βCD. We shall assume that the observed variance is a weighted average depending on the fraction of free α-naphthol, x. This assumption is valid when the complexation kinetics is fast compared to the timescale of the experiment (16). […] The experimental points are found to be well described by the model and the estimated binding constants are in good agreement with literature data considering that other methods and different conditions were used (table 1). In table 1, the diffusion coefficients of the analytes and complexes calculated using eq 2 and assuming a capillary radius of 25 μm are also listed. […] Samples were run in triplicate.

[2] = ACE; complex with βCD; 67 mM phosphate buffer pH 7.4; ±standard deviation
Experimental: Flow induced dispersion and capillary electrophoresis experiments were carried out using an Agilent ^3DCE instrument (Agilent Technologies, Waldbronn, Germany). Uncoated fused silica capillaries of 48.5 cm total length (50 μm i.d., 360 μm o.d.) and 40.5 cm to the detection window were obtained from Polymicro Technologies (Phoenix, Ariz., USA).
New capillaries were conditioned with 1 M NaOH (45 min), Milli-Q water (30 min) and 67 mM phosphate buffer pH 7.4 (30 min). Before a series of experiments the capillary was refreshed by flushing with 1 M NaOH (10 min) and 67 mM phosphate buffer pH 7.4 (10 min). In FIDA, the capillary was preconditioned by flushing the capillary with 0.1 M NaOH (2 min) and run buffer (2 min). The sample was injected by applying a pressure of 50 mbar for 5 sec. Subsequently a pressure of 50 mbar was applied across the capillary to force the sample through it. Finally the sample was detected by UV absorbance at 230 nm. Samples were run in triplicate. The peak variance was obtained by fitting the UV signal to a Gaussian peak shape. The Gaussian in addition to peak variance and peak appearance time the function incorporates a constant A to account for signal height and a constant y0 to account for a possible detector offset.

[3] = literature data (18, 19); cited from earlier work
[4] = Flow Induced Dispersion Analysis (FIDA) equilibrium binding constant with βCD; conditions: complex with βCD, 67 mM phosphate buffer pH 7.4, 25° C., ±standard deviation
Experimental: The sample volume introduced into the capillary in these experiments corresponds to 9 nL. […] The peak shape may be fitted to a Gaussian peak shape (described in the examples); in this way the temporal peak variance σ^2 can be estimated.
[formula] where σA^2 is the observed variance obtained from a Gaussian fit in the absence of an interacting analyte and σAL^2 is the variance corresponding to the complex AL. […] Corrections due to sample injection and detector variances may be introduced, but as they are small and constant under the present conditions they are neglected.
[formula] where [L] is the concentration of free analyte. […]
In a series of experiments the concentration of βCD in the background electrolyte was varied and the peak variances determined.
βCD, α-naphthol and naproxen was obtained form Sigma-Aldrich. […] The amount of water present in βCD was determined by gravimetric analysis upon drying to constant weight in vacuo at ˜60° C. […]

[5] = complex with βCD; literature data (17); cited from earlier work

Row | Compound | Diffusion coefficient of the free analyte DA [1] | Diffusion coefficient of the complex DAL [1] | Equilibrium binding constant K [2] | Diffusion coefficient of the free analyte DA [3] | Equilibrium binding constant K [4] | Equilibrium binding constant K [5]
1 | COc1ccc2cc([C@H](C)C(=O)O)ccc2c1 [Naproxen, naproxen] | 5.6 · 10^−6 cm^2 s^−1 | 2.8 · 10^−6 cm^2 s^−1 | 650 (±28)^f M^−1 | 5.8 · 10^−6g cm^2 s^−1 | 1050 (±185) M^−1 | –
2 | Oc1cccc2ccccc12 [α-Naphthol, α-naphthol] | 9.3 · 10^−6 cm^2 s^−1 | 3.3 · 10^−6 cm^2 s^−1 | – | 9.2 · 10^−6e cm^2 s^−1 | 2400 (±240) M^−1 | 1250^d M^−1
